{
  "source": "patent US12618045B2",
  "about": "“Automated method for preparing retinal pigment epithelium cells” (CENTRE D'ETUDE DES CELLULES SOUCHES (CECS), priority 2019, dated 2026)",
  "molecules": {"B1": {"name": "Activin A: member of TGF β superfamily, second differentiating agent, 100 ng/ml (Peprotech) (protein, UniProt P08476 311-426, looked up)", "Inhibin beta A chain": "GLECDGKVNICCKKQFFVSFKDIGWNDWIIAPSGYHANYCEGECPSHIAGTSGSSLSFHSTVINHYRMRGHSPFANLKSCCVPTKLRPMSMLYYDDGQNIIKKDIQNMIVEECGCS", "modifications": "Inhibin beta A chain"}},
  "key": {"[1]": {"tested_on": "hESCs (hESC line RC-0913)", "assay": "RT-qPCR of retinal development markers during differentiation of hESCs", "format": "cell-based, human", "protocol": "(§1) Clinical-grade hESC line RC-0913, was used and cultured in feeder free conditions using mTeSR™ Medium (StemCell technologies) and hESC qualified Matrigel (Corning). Cells were banked at passage 36 and used for RPE differentiation between passage 38 and 45. Cells were plated at 5×10^4 cells per cm^2 and grown until they reached 80 percent of confluence before switching to a differentiation medium composed of Dulbecco's modified Eagle's medium (high glucose, Thermo Fisher Scientific) supplemented with 50 μM β-mercaptoethanol, 1× minimum essential medium-nonessential amino acids (Thermo Fisher Scientific) and 20% (D0-D42) or 4% (after passage 1) of knockout serum replacement (KSR, Thermo Fisher Scientific). During all the differentiation process the medium was changed every 2/3 days.\n(§2) For the referred “directed differentiation” protocol, 10 mM Nicotinamide (Sigma), 100 ng/ml Activin A\n(§3) (Peprotech) and 3 μM CHIR99021 (Tocris) were added sequentially to the basal differentiation medium at specific time points (FIG. 2A).\nTotal RNAs were extracted using RNAeasy Plus Mini kit (Qiagen) and cDNA synthesized using SuperScript III (Invitrogen). Quantitative real-time RT-PCR was performed using a Quant Studio 12K flex (Applied Biosystems) with HiGreen qPCR Master Mix (Thermo Fisher Scientific). Experiments were performed with at least three technical replicates per plate and expression levels were normalized to 18S. Relative expression compared to hESCs gene expression levels were determined by calculating the 2-ΔΔCt."}, "[2]": {"tested_on": "hESCs (hESC line RC-0913)", "assay": "Immunostaining of marker proteins during differentiation of hESCs", "format": "cell-based, human", "protocol": "as §1, §2, §3\nhESC-RPE cells were grown on Matrigel-coated 96 or 24-well plates. Adherent cells were fixed in 4% PFA for 10 min at room temperature (RT) and rinsed 3 times with PBS. After 30 min in blocking solution (10% FBS in 0.1% Triton PBS) at RT, cells were incubated with primary antibodies overnight at 4° C. After 3 washes in PBS, appropriate Alexa Fluor-conjugated secondary antibodies (Invitrogen) were added at 1:500 for 1 h at RT in presence of DAPI (Invitrogen).\nImages were acquired with an Axio observer Z1 microscope (Zeiss) with a Hamamatsu ORCA-flash 4.0 camera and a spinning disk unit (Yokogawa CSU-X1-A1N-E; Camera evolve, EMCCD 512) with Metamorph software or with a LSM-800 confocal microscope (Zeiss) with Zen software. Images were exported, analyzed and processed with Fiji software. […] The quantification of pigmented areas was performed after manual delimitation of culture dish areas using Fiji software. Pictures were then binarized to 8-bit images using a fixed intensity threshold and the black area fraction was measured (not herein shown)."}, "[3]": {"settings": "CHIR99021 from day 14 to day 35-42"}},
  "data": [
    {"molecule": "Cc1c[nH]c(-c2cnc(NCCNc3ccc(C#N)cn3)nc2-c2ccc(Cl)cc2Cl)n1", "note": "[CHIR99021]", "values": [
      {"measurement": "MITF expression (mRNA)", "setting": "[1]; [3]", "result": "continuous increased expression"},
      {"measurement": "VSX2 mRNA levels", "setting": "[1]; [3]", "result": "acute decreased expression"},
      {"measurement": "MITF+ cells", "setting": "[2]; day 21, CHIR99021 from day 14", "result": "87.5%±12.5%"},
      {"measurement": "VSX2 positive cells", "setting": "[2]; day 21, CHIR99021 from day 14", "result": "absence"}
    ]},
    {"molecule": "NC(=O)c1cccnc1", "note": "[Nicotinamide]", "values": [
      {"measurement": "transient expression of early eye field transcription factors SIX3 and RAX (mRNA)", "setting": "[1]; Nicotinamide 10 mM, first 7 days of differentiation, compared to spontaneous protocol, p<0.01", "result": "significantly enhanced"},
      {"measurement": "expression of pluripotency marker NANOG (mRNA)", "setting": "[1]; Nicotinamide 10 mM, first 7 days, compared to spontaneous protocol, p<0.01", "result": "higher decrease"},
      {"measurement": "cells co-expressing LHX2 and PAX6 proteins", "setting": "[2]; day 7 after Nicotinamide treatment, n=3", "result": "86.8%±4.3%"}
    ]},
    {"molecule": "B1", "values": [
      {"measurement": "RAX and SIX3 mRNA levels", "setting": "[1]; Activin A day 7 to day 14", "result": "decreased"},
      {"measurement": "expression of optic vesicle transcription factors VSX2 and MITF (mRNA)", "setting": "[1]; Activin A day 7 to day 14, compared to spontaneous differentiation, p≤0.05", "result": "significantly increased"}
    ]}
  ]
}
